How the values were obtained:
[1] = tested on: A549-ACE2 infected with SARS-CoV-2; assay: cell count relative to DMSO; higher = less toxic; conditions: 24 h
[2] = tested on: Caco-2; assay: cell viability relative to DMSO; higher = less toxic; conditions: 72 h
[3] = tested on: Calu-3; assay: as above; conditions: 72 h
[4] = tested on: HepG2; assay: as above; conditions: 72 h
[5] = tested on: U2OS; assay: as above; conditions: 72 h
[6] = tested on: Vero E6; assay: as above; conditions: 72 h
[7] = tested on: A549-ACE2 infected with SARS-CoV-2; assay: SARS-CoV-2 infection rate relative to DMSO; higher = more infection; conditions: 24 h
[8] = tested on: A549-ACE2; assay: phospholipidosis EC50; higher = less potent phospholipidosis inducer
[9] = tested on: A549-ACE2; assay: drug-induced phospholipidosis relative to tamoxifen; higher = more phospholipidosis
[10] = tested on: A549-ACE2 infected with SARS-CoV-2; assay: morphology score (similarity to uninfected cells); higher = more like uninfected cells; conditions: 24 h
[11] = tested on: Caco-2; assay: relative viability EC50 (midpoint between 100% and the lowest measured viability); higher = less toxic; conditions: 72 h
[12] = tested on: Calu-3; assay: as above; conditions: 72 h
[13] = tested on: U2OS; assay: as above; conditions: 72 h
[14] = tested on: Vero E6; assay: as above; conditions: 72 h
[15] = tested on: Caco-2; assay: drug sensitivity score (DSS) for viability; higher = more toxic; extreme values may be limits of the assay; conditions: 72 h
[16] = tested on: Calu-3; assay: as above; conditions: 72 h
[17] = tested on: HepG2; assay: as above; conditions: 72 h
[18] = tested on: U2OS; assay: as above; conditions: 72 h
[19] = tested on: Vero E6; assay: as above; conditions: 72 h
[20] = tested on: HepG2; assay: relative viability EC50 (midpoint between 100% and the lowest measured viability); higher = less toxic; conditions: 72 h

CCn1c2ccccc2c2cc(CNC)ccc21 [PhiKan-083]
Conditions | SARS-CoV-2 infection rate [%] | cell count [%] | cell viability [%] | morphology score | phospholipidosis EC50 [µM]
[1], 0.3 µM | – | 103 | – | – | –
[1], 3 µM | – | 105 | – | – | –
[1], 10 µM | – | 117 | – | – | –
[1], 30 µM | – | 119 | – | – | –
[2], 1 nM | – | – | 102 | – | –
[2], 10 nM | – | – | 100 | – | –
[2], 100 nM | – | – | 102 | – | –
[2], 1000 nM | – | – | 105 | – | –
[2], 10000 nM | – | – | 108 | – | –
[3], 1 nM | – | – | 96.2 | – | –
[3], 10 nM | – | – | 99.9 | – | –
[3], 100 nM | – | – | 105 | – | –
[3], 1000 nM | – | – | 97.6 | – | –
[3], 10000 nM | – | – | 103 | – | –
[4], 1 nM | – | – | 98.2 | – | –
[4], 10 nM | – | – | 106 | – | –
[4], 100 nM | – | – | 97.4 | – | –
[4], 1000 nM | – | – | 99.3 | – | –
[4], 10000 nM | – | – | 68.3 | – | –
[5], 1 nM | – | – | 99.4 | – | –
[5], 10 nM | – | – | 100 | – | –
[5], 100 nM | – | – | 99.2 | – | –
[5], 1000 nM | – | – | 99.7 | – | –
[5], 10000 nM | – | – | 98.8 | – | –
[6], 1 nM | – | – | 98.5 | – | –
[6], 10 nM | – | – | 103 | – | –
[6], 100 nM | – | – | 98.7 | – | –
[6], 1000 nM | – | – | 99.9 | – | –
[6], 10000 nM | – | – | 90.8 | – | –
[7], 0.3 µM | 94 | – | – | – | –
[7], 3 µM | 79 | – | – | – | –
[7], 10 µM | 51 | – | – | – | –
[7], 30 µM | 16 | – | – | – | –
[8], 24 h | – | – | – | – | 5.19
[8], 48 h | – | – | – | – | 6.25
[8], 72 h | – | – | – | – | 6.91
[10], 0.3 µM | – | – | – | 0.23 | –
[10], 3 µM | – | – | – | 0.46 | –
[10], 10 µM | – | – | – | 0.75 | –
[10], 30 µM | – | – | – | 0.82 | –

drug-induced phospholipidosis [%], [9]
Conditions | 0.3 µM | 0.833333 µM | 3.33333 µM | 6.66667 µM | 10 µM | 30 µM
24 h | 2.5 | 2.35 | 26.5 | 64.2 | 83.4 | 97.2
48 h | 3.59 | 3.69 | 21.8 | 58.2 | 75.7 | 99.9
72 h | 3.02 | 2.71 | 17.3 | 49 | 70.8 | 95.9

Conditions | drug sensitivity score | relative viability EC50 [µM]
[11] | – | > 10
[12] | – | > 10
[13] | – | > 10
[14] | – | > 10
[15] | 0 | –
[16] | 0 | –
[17] | 1.5 | –
[18] | 0 | –
[19] | 0 | –

CN(Cc1ccc(C(C)(C)C)cc1)Cc1cccc2ccccc12 [butenafine]
Conditions | SARS-CoV-2 infection rate, [7] [%] | cell count, [1] [%] | cell viability, [2] [%] | cell viability, [3] [%] | cell viability, [4] [%] | cell viability, [5] [%] | cell viability, [6] [%] | morphology score, [10]
1 nM | – | – | 95.3 | 100 | 106 | 94.6 | 92.8 | –
10 nM | – | – | 101 | 102 | 94.2 | 98 | 102 | –
100 nM | – | – | 92.8 | 98 | 103 | 96.9 | 95.5 | –
0.3 µM | 100 | 101 | – | – | – | – | – | 0.14
1000 nM | – | – | 92.5 | 94.5 | 102 | 96.3 | 102 | –
3 µM | 105 | 83 | – | – | – | – | – | -0.05
10 µM | 77 | 107 | – | – | – | – | – | 0.58
10000 nM | – | – | 93.6 | 98 | 105 | 96.1 | 97.4 | –
30 µM | 39 | 110 | – | – | – | – | – | 0.79

drug-induced phospholipidosis [%], [9]
Conditions | 0.3 µM | 0.833333 µM | 3.33333 µM | 6.66667 µM | 10 µM | 30 µM
24 h | 1.71 | -2.5 | 2.21 | -2.25 | 2.84 | 7.06
48 h | 1.14 | -3.77 | -1.99 | -1.09 | 3.04 | 15.1
72 h | 2.18 | -4.26 | -1.97 | -2.04 | 0.626 | 14.1

Conditions | drug sensitivity score | relative viability EC50 [µM]
[11] | – | > 10
[12] | – | > 10
[13] | – | > 10
[14] | – | > 10
[15] | 0 | –
[16] | 0 | –
[17] | 0 | –
[18] | 0 | –
[19] | 0 | –
[20] | – | > 10

OCCN1CCN(CC/C=C2/c3ccccc3Sc3ccc(C(F)(F)F)cc32)CC1 [flupentixol]
Conditions | SARS-CoV-2 infection rate [%] | cell count [%] | cell viability [%] | morphology score | phospholipidosis EC50 [µM]
[1], 0.3 µM | – | 107 | – | – | –
[1], 3 µM | – | 113 | – | – | –
[1], 10 µM | – | 124 | – | – | –
[1], 30 µM | – | 96 | – | – | –
[2], 1 nM | – | – | 90.3 | – | –
[2], 10 nM | – | – | 93.7 | – | –
[2], 100 nM | – | – | 95.2 | – | –
[2], 1000 nM | – | – | 87.6 | – | –
[2], 10000 nM | – | – | 92.4 | – | –
[3], 1 nM | – | – | 85.3 | – | –
[3], 10 nM | – | – | 87.7 | – | –
[3], 100 nM | – | – | 106 | – | –
[3], 1000 nM | – | – | 94.7 | – | –
[3], 10000 nM | – | – | 87 | – | –
[4], 1 nM | – | – | 97.2 | – | –
[4], 10 nM | – | – | 93.8 | – | –
[4], 100 nM | – | – | 90 | – | –
[4], 1000 nM | – | – | 96.9 | – | –
[4], 10000 nM | – | – | 89.9 | – | –
[5], 1 nM | – | – | 99.2 | – | –
[5], 10 nM | – | – | 89.9 | – | –
[5], 100 nM | – | – | 105 | – | –
[5], 1000 nM | – | – | 94.6 | – | –
[5], 10000 nM | – | – | 92.1 | – | –
[6], 1 nM | – | – | 98.1 | – | –
[6], 10 nM | – | – | 96.9 | – | –
[6], 100 nM | – | – | 98.1 | – | –
[6], 1000 nM | – | – | 91.8 | – | –
[6], 10000 nM | – | – | 93.1 | – | –
[7], 0.3 µM | 97 | – | – | – | –
[7], 3 µM | 66 | – | – | – | –
[7], 10 µM | 17 | – | – | – | –
[7], 30 µM | 46 | – | – | – | –
[8], 24 h | – | – | – | – | 17
[8], 48 h | – | – | – | – | 8.95
[8], 72 h | – | – | – | – | 10.2
[10], 0.3 µM | – | – | – | 0.2 | –
[10], 3 µM | – | – | – | 0.62 | –
[10], 10 µM | – | – | – | 0.88 | –
[10], 30 µM | – | – | – | 0.36 | –

drug-induced phospholipidosis [%], [9]
Conditions | 0.3 µM | 0.833333 µM | 3.33333 µM | 6.66667 µM | 10 µM | 30 µM
24 h | 4.08 | 5.01 | 30.1 | 43.1 | 72.8 | 122
48 h | 5.09 | 0.98 | 25.8 | 36.9 | 80 | 116
72 h | 7.2 | 2.4 | 18.4 | 31.8 | 74.8 | 138

Conditions | drug sensitivity score | relative viability EC50 [µM]
[11] | – | > 10
[12] | – | > 10
[13] | – | > 10
[14] | – | > 10
[15] | 0 | –
[16] | 0.6 | –
[17] | 0 | –
[18] | 0 | –
[19] | 0 | –
[20] | – | > 10

Source: the supplement of paper PMC13380429
